The conditions of experiment [1]: rat at 37° C.; cited from earlier work.
A further experiment has as its target TRPV1 (Rattus norvegicus, UniProt O35433). Kind of experiment: Voltage-clamp of TRPV1-expressing Xenopus oocytes (capsaicin, protons, heat). The experiment is classed as cell-based. The conditions noted are these: for Temperature threshold of TRPV1 heat activation: control ~46° C. The procedure:
Oocyte electrophysiology. […] Oocytes were placed in a Perspex chamber and continuously superfused (5 ml min-1) with Ca2+-free solution containing (in mM): 100 NaCl, 2.5 KCl, 5 HEPES, 1 MgCl2 and titrated to pH 7.3 with ˜5 mM NaOH. For solutions <pH 6.0, HEPES was replaced with either 5 mM MES or 5 mM sodium citrate. Oocytes were routinely voltage-clamped at −60 mV at 22-23° C. For heat activation, bath temperature was raised from ˜22-50° C. over ˜100 s using an in-line solution heater (Warner Instruments). The temperature was continuously monitored with a probe placed within 2 mm of the oocyte. The temperature-activation threshold was defined as a 20% increase in current above baseline.
Volatile general anesthetics. Saturated stock solutions of volatile general anesthetics (VGAs) were prepared in gas-tight bottles by dissolving excess anesthetic agents in bath solutions and stirring vigorously overnight. From these stock solutions fresh dilutions were made up every 40-60 minutes. Concentrations of volatile anesthetics in the bath solutions were verified using a modified head-space gas chromatography method. The gas chromatograph (Carlo Erba, Milan, Italy) was equipped with a flame ionization detector (FID) and mass spectrometer. The carrier gas was hydrogen (60 kPa column head pressure) and the fused silica capillary column, coated with polysiloxane SE-30, was 25 m×0.25 mm. Injector temperature was 250° C., FID temperature was 300° C. and the oven was maintained at 90° C. Standards were prepared from a mixture of halothane, isoflurane, and sevoflurane dissolved in acetonitrile with enflurane as an internal standard.

The target in experiment [2] is T1, TRPA1 (Rattus norvegicus, UniProt Q6RI86).
T1 construct: expressed in transfected cells; host or cells: HEK 293F
T1 sequence (Q6RI86 whole entry): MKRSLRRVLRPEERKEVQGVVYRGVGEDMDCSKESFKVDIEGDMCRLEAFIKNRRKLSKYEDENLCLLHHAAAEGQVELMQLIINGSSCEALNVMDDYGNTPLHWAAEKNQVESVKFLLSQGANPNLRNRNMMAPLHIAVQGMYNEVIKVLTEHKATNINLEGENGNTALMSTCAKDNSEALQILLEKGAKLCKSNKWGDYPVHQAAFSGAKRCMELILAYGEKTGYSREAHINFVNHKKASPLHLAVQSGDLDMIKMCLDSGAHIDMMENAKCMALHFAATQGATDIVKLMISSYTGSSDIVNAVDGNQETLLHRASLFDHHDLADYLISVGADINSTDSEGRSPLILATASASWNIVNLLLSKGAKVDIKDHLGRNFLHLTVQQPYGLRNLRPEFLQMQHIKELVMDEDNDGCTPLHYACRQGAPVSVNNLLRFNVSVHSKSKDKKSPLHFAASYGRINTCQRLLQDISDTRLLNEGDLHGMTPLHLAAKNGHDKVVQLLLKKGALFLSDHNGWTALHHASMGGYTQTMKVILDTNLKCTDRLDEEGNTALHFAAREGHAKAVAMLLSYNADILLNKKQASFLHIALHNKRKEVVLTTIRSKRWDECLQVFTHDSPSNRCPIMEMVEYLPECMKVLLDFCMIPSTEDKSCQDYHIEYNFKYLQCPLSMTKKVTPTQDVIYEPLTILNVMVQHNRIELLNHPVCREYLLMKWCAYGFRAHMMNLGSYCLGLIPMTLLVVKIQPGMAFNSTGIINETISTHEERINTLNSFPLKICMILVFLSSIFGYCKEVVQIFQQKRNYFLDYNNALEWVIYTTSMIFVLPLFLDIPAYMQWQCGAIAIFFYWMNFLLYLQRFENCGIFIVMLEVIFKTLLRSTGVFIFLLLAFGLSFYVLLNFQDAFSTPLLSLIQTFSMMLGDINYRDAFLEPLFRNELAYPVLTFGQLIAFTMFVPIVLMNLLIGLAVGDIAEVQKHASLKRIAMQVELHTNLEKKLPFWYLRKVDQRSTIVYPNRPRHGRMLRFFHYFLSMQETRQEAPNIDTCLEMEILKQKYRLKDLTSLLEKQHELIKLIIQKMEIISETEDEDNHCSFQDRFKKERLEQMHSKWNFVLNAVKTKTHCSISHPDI
Kind of experiment: Whole-cell patch-clamp of TRPA1-expressing HEK293 cells. The experiment is classed as cell-based. The conditions noted are these: for Activation of TRPA1 currents by VGAs: 0.9 mM, voltage-clamped HEK293 cells. On the procedure: Electrophysiology. […] Whole-cell and single-channel patch-clamp recordings were performed by using an EPC8 amplifier (HEKA Electronics). For whole-cell and excised patch recordings the bath solution contained 140 mMNaCl, 4 mMKCl, 1 mMMgCl2, 1.2 mMCaCl2, 10 mMHepes, 10 mM glucose, pH 7.3. For cell-attached experiments, NaCl was replaced with KCl in the bath solution. […] For neuronal recording NaCl was replaced with K-gluconate (plus 1 mMATP, 0.2 mM GTP). Solutions were applied via a gravity-fed system. […] Voltage-dependent properties were measured as described in Matt and Ahern, J. Physiol. […] The baseline currents under control conditions were subtracted. For cell-attached experiments, peak amplitudes were measured from all-points histograms, and open probability was measured as NPo>750 ms. Defolliculated Xenopus laevis oocytes were injected with ≈10 ng of hTRPA1 (gift of Ardem Patapoutian, The Scripps Research Institute, La Jolla, Calif.).
Volatile General Anesthetics and Chemicals. Saturated stock solutions of volatile GAs were prepared in gas-tight bottles by dissolving excess anesthetic agents in bath solutions overnight. From these stock solutions fresh dilutions were made up every 40-60 min. Concentrations of GAs in the bath solutions were verified by using a modified head-space gas chromatography method. […] Alcohols with <6 carbons were dissolved directly into extracellular solution, and alcohols containing 6 carbons or more were dissolved in DMSO and then diluted into extracellular solutions that were sonicated for 20 min. All other drugs were prepared as stock solutions in DMSO or ethanol and diluted into physiological solution before experiments.

The target of the next experiment is T2, hTRPA1 (Homo sapiens, UniProt O75762).
T2 construct: expressed in transfected cells; host or cells: Xenopus laevis oocytes (injected)
T2 sequence (O75762 whole entry): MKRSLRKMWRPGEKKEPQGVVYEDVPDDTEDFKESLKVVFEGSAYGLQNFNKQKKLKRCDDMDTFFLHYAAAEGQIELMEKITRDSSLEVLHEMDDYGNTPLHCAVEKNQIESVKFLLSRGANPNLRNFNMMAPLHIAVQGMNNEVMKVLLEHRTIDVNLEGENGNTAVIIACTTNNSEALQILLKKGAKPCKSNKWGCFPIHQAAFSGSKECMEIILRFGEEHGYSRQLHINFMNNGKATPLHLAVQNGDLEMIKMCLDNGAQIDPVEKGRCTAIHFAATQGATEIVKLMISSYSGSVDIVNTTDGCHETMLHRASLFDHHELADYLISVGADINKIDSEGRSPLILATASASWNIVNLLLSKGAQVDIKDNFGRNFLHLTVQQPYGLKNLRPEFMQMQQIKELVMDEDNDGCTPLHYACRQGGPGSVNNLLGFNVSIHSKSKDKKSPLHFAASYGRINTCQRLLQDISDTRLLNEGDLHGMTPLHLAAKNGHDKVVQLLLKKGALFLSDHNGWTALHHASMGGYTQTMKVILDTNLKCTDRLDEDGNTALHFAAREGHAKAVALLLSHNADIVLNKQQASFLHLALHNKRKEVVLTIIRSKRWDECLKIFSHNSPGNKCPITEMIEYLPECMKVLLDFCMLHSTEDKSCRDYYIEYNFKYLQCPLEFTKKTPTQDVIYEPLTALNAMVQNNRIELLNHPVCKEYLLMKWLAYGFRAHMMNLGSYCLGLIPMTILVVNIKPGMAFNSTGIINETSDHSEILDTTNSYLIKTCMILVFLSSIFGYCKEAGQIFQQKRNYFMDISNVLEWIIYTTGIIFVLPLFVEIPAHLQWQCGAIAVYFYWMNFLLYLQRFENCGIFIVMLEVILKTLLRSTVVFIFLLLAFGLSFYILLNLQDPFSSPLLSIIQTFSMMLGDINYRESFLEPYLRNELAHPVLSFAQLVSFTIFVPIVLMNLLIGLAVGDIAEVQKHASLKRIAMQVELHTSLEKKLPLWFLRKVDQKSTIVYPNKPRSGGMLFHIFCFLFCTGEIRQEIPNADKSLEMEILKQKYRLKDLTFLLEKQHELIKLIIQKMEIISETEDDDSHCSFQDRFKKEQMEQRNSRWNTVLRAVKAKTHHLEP
Kind of experiment: AITC-evoked currents in TRPA1-expressing Xenopus oocytes. The conditions noted are these: VGAs 0.5-0.65 mM, AITC 10 μM. The experiment is classed as cell-based. On the procedure:
(§1) Electrophysiology. HEK 293F cells were transfected with rat TRPV1, TRPA1, and TRPM8 (gift of David Julius, University of California, San Francisco). Dorsal root ganglia were cultured from adult mice (C57B16/J wild type and TRPV1-null, and mixed B6/129 background TRPA1-null) in Neurobasal +2% B-27 medium (Invitrogen), 0.1% L-glutamine and 1% penicillin/streptomycin. Whole-cell and single-channel patch-clamp recordings were performed by using an EPC8 amplifier (HEKA Electronics). For whole-cell and excised patch recordings the bath solution contained 140 mMNaCl, 4 mMKCl, 1 mMMgCl2, 1.2 mMCaCl2, 10 mMHepes, 10 mM glucose, pH 7.3. For cell-attached experiments, NaCl was replaced with KCl in the bath solution. The pipette solution contained 140 mM NaCl or KCl, 10 mM Hepes, 5 mM EGTA, pH 7.3. For neuronal recording NaCl was replaced with K-gluconate (plus 1 mMATP, 0.2 mM GTP). Solutions were applied via a gravity-fed system. Separate outlets were used to apply capsaicin and AITC solutions to avoid contamination. Voltage-dependent properties were measured as described in Matt and Ahern, J. Physiol. 585:469-482 (2007). Current-voltage measurements comprised a 200-ms ramp from −150 mV to +200 mV. The baseline currents under control conditions were subtracted. For cell-attached experiments, peak amplitudes were measured from all-points histograms, and open probability was measured as NPo>750 ms. Defolliculated Xenopus laevis oocytes were injected with ≈10 ng of hTRPA1 (gift of Ardem Patapoutian, The Scripps Research Institute, La Jolla, Calif.). Oocytes were placed in a Perspex chamber and continuously superfused (5 ml min^−1) with Ca^2+-free solution containing 100 mM NaCl, 2.5 mM KCl, 5 mM Hepes, 1 mM MgC12 and titrated to pH 7.3 with ˜5 mM NaOH.

Experiment [3] addresses T1, TRPA1. Kind of experiment: Single-channel recordings of TRPA1 (outside-out / cell-attached patches). It is filed as cell-based. The conditions noted are these: for TRPA1 single-channel conductance in presence of VGA: 0.23 mM isoflurane, 0.9 mM desflurane, reduced from ≈110 pS; for Single TRPA1 channel activity: cell-free patches. The procedure: as §1
For a further experiment, the target named is T3, mutant S502A/S800A TRPV1 (Rattus norvegicus, UniProt O35433, S502A/S800A).
T3 construct: expressed in transfected cells; host or cells: Xenopus laevis oocytes (cRNA injection)
T3 sequence (O35433 whole entry S502A/S800A): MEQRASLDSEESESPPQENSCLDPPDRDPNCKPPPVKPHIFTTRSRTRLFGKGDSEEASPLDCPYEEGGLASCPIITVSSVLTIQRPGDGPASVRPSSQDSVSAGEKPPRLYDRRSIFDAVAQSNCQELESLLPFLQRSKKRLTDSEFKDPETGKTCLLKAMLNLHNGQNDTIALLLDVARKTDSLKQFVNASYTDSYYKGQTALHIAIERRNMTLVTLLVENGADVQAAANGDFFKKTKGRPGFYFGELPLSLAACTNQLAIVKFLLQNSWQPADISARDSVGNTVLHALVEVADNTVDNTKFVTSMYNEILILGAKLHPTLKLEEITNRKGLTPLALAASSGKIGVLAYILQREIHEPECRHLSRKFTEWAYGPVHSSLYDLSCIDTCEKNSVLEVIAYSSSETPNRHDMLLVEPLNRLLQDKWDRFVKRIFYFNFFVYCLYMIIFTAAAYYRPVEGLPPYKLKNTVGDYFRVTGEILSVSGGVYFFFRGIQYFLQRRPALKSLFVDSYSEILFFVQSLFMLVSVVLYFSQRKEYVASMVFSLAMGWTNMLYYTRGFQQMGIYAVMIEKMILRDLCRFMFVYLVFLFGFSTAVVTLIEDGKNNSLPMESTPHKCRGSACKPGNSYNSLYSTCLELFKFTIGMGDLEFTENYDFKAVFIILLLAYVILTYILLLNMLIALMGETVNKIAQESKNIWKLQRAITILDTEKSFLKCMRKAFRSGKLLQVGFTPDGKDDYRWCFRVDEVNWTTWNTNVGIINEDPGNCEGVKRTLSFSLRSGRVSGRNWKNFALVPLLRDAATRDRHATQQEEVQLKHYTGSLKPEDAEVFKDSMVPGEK
Kind of experiment: Heat activation in oocytes expressing mutant S502A/S800A TRPV1. The experiment is classed as cell-based. The procedure:
Oocyte electrophysiology. […] Oocytes were placed in a Perspex chamber and continuously superfused (5 ml min-1) with Ca2+-free solution containing (in mM): 100 NaCl, 2.5 KCl, 5 HEPES, 1 MgCl2 and titrated to pH 7.3 with 5 mM NaOH. For solutions <pH 6.0, HEPES was replaced with either 5 mM MES or 5 mM sodium citrate. Oocytes were routinely voltage-clamped at -60 mV at 22-23° C.

Structures are written as SMILES. “Also recorded” adds a separate entry of the source.

Sequence of TRPV1 (O35433 whole entry, the tested form may be a part): as the sequence (O35433 whole entry S502A/S800A) above, with A502S, A800S counted along it

Broadly, the EC50 is the concentration that produces a half-maximal response. Regarding `FC(F)OC(Cl)C(F)(F)F` (centres unmarked) [isoflurane], the “1 MAC equivalent aqueous concentration (published conversion factor)” value in experiment [1] is 0.31 mM. In addition, at TRPV1 (0.5 mM isoflurane), the “Temperature threshold of TRPV1 heat activation” value was determined as 43 °C. In addition, the “Temperature threshold of TRPV1 heat activation” value at TRPV1 (0.9 mM isoflurane) worked out at 40 °C. Also, at TRPV1 (isoflurane 0.9 mM), the “Enhancement of maximal proton-evoked current” value is listed as “approximately 3 fold”. Further, at TRPV1 (isoflurane 0.9 mM after PDBu, control 45.9±0.2), the “Temperature threshold of TRPV1 heat activation after PDBu application” value was determined as 32.8±0.8 °C. At TRPV1 (isoflurane 0.9 mM, n=4), the “Enhancement of currents evoked by pH 5.5 solution” value is given as “approximately 10 fold”. For the same compound, the “Maximal proton response as % of 10 μM capsaicin” value on TRPV1 (isoflurane 0.9 mM, control 14.3%) is listed as 32.2%. For the same compound, on TRPA1 [2], the “Activation of TRPA1 after AITC treatment” value was “failed to activate” and the “Activation of TRPA1 currents by VGAs” value is “produced inward currents; also recorded: robustly activated”. In addition, the “TRPA1 response at high concentration” value on TRPA1 [2] (2.7 mM, additional blocking mechanism) was “reduced”. Further, at TRPA1 [2] (HEK293 cells), the “EC50 of TRPA1 activation expressed in MAC” value was found to be 0.57 MAC and the “Hill coefficient of TRPA1 activation” value worked out at 1.6±0.2. The concentration giving a half-maximal response (EC50) on TRPA1 [2] (HEK293 cells, read-out: EC50 of TRPA1 activation) came out at 180 ± 20 µM. Further, the “Effect on TRPA1 when applied together with saturating octanol” value at TRPA1 [2] (isoflurane 0.9 mM + octanol 1.8 mM) is “negligible effects”. Further, the “Activation of TRPA1 at holding potential −50 mV” value on TRPA1 [2] (isoflurane 0.9 mM, octanol 1 mM) was “selectively activated”. In addition, on TRPA1 [2] (reduction at higher concentrations), the “Concentration at peak of bimodal dose-response relationship” value was “≈ 1 mM”. Moreover, at hTRPA1, the “Effect on AITC-evoked currents” value was “markedly enhanced”. For the same compound, at TRPA1 [3], the “TRPA1 single-channel conductance in presence of VGA” value is “≈ 60 pS” and the “Single TRPA1 channel activity” value is reported as “enhanced single-channel gating; also recorded: activate single TRPA1 channels”. Further, on mutant S502A/S800A TRPV1 (PDBu+isoflurane, n=3), the “Temperature threshold, mutant S502A/S800A TRPV1” value was determined as 37.3±0.7 °C. In addition, the “Temperature threshold, mutant S502A/S800A TRPV1” value on mutant S502A/S800A TRPV1 (isoflurane, n=5) stood at 39.4±1.9 °C.
With `FC(F)OC(F)C(F)(F)F` (centres unmarked) [desflurane], the “1 MAC equivalent aqueous concentration (published conversion factor)” value in experiment [1] is listed as 0.51 mM. In addition, the “Enhancement of proton-evoked currents compared with isoflurane and sevoflurane” value on TRPV1 (VGAs 0.6 mM, pH 5.5) is “significantly more”. Besides, the “Activation of TRPA1 currents by VGAs” value at TRPA1 [2] is “robustly activated”. In addition, the “Effect on AITC-evoked currents” value on hTRPA1 is recorded as “markedly enhanced”. For the same compound, at TRPA1 [3], the “TRPA1 single-channel conductance in presence of VGA” value is recorded as “≈ 80 pS” and the “Single TRPA1 channel activity” value is on record as “enhanced single-channel gating; also recorded: activate single TRPA1 channels”. For the same compound, on TRPA1 [3] (cell-attached patches), the “Increase in maximal open probability of TRPA1” value is greater than 6 fold. On TRPA1 [3] (cell-attached patches, shifted from 72.1 mV), the “V1/2 of TRPA1 open probability in presence of desflurane” value is reported as 42.5 mV.

These data come from patent US20110104301A1, “METHODS OF REDUCING PAIN AND INFLAMMATION” (Georgetown University, A Congressionally Chartered …, priority 2008, published 2011).
